The values below are quoted from earlier work in patent US20150174160A1, “METHODS FOR TREATING, DIAGNOSING AND/OR MONITORING PROGRESSION OF OXO ASSOCIATED STATES” (priority 2012, published 2015).

The conditions of this data set: for 2 years in humans.

Consider `O=C(O)CCCCC1CCSS1` (stereo not drawn) [ALA, alpha-lipoic acid], for which the safe dose result is “up to 2 grams daily”.
